# According to patent US20250186472A1, “COMBINATION OF POH AND REMDESIVIR FOR TREATMENT OF CNS INFECTIONS” (NeOnc Technologies, Inc., priority 2020, published 2025):
# Entries after “also recorded” stand apart in the source; their conditions may differ.
# Experiments:
# GL261 mouse glioma [1] = assay: Anti-mouse PD-1 antibody therapeutic efficacy (survival) in intracranial syngeneic glioma; format: in vivo, C57 BL/6 mice; conditions: IC 40 μl 5% NEO100 and/or IV anti-PD1 2.5 mg/kg; treatment from day 7
# Protocol: 100,000 GL261 mouse glioma cells were injected intracranially to immune competent mice, C57 BL/6. 7 days post the injection, the mice were randomly divided into 4 experimental groups, and initiated the treatment at the same day. • Group 1. Control: IV and Intracardiac injection of 40 μl Saline Solution (5). • Group 2. Antibody treated mice: IV 40 μl Anti-mouse PD1 antibody at the dose of 2.5 mg/kg (5). • Group 3. NEO100 treated mice: Intracardiac injection of 40 μl 5% NEO100(5). • Group 4. Combination of NEO100 and antibody treated mice: Intracardiac 40 μl 5% NEO100, followed by IV 40 μl Anti-PD1 antibody at the dose of 2.5 mg/kg (6).
# Animal survival data were plotted using the Kaplan-Meier method. One-way ANOVA was used for the overall test for differences. Grouped comparisons were performed using the Tukey method of adjusting for multiple comparisons. Logrank (Mantel-Cox) test was applied for the comparison of survival curves. A statistical evaluation result of p<0.05 was considered significant. • Control vs IC NEO100+IV Anti-mouse PD-1: *** P<0.0003 • Control vs IV Anti-mouse PD-1: ns, p=0.31 • IV Anti-mouse PD-1 vs IC NEO100+IV Anti-mouse: ** P<0.005 • Control vs IC NEO100: ns, p=0.397
# GL261 mouse glioma [2] = assay: NEO100-mediated human CAR T cell delivery to brain and tumor (CD3 IHC); format: in vivo
# Protocol: 2-million CD19 and Lym-1 human CAR T cells that were suspended in 0.9% saline working solution to be used for the IV injection with and without intracardiac NEO100.
# Preparation of the working solution for intracardiac injection of NEO100: 3% NEO100 suspended in 0.9% saline.
# 40 μl 3% NEO100 in saline was injected slowly to complete intracardiac application. Direct cell injection into the heart could cause local microinfaractions if the cells are clumpy during injection, hemopericardium and death as a consequence. This is why ultrasound guided injections with a small 30 G needle is important to minimize these potential adverse effects, (1) enabling the visualization of the needle tract to ensure that the needle enters the left ventricle only, and (2) subsequent monitoring of the heart through not only ECG but visualization of heart wall function after the injection. The fine gauge of the needle ensures that the cells are not clumpy when the cells are injected through intracardiac puncture.
# Immediate after the completion of NEO100 injection, 2 million human CAR T cells in 40 μl PBS were injected through tail vein catheter that pre-primed with saline solution. To avoid the possible adverse effects mentioned above by direct cell injection through intracardiac application, we set up 2-step procedures for the study.
# Step 1: 40 μl 3% NEO100 in saline was injected slowly to complete intracardiac application. This procedure allows NEO100 to exert the function of BBB disruption.
# Step 2:2-million CAR T cells were injected by IV through tail vein catheter.
# Brain Perfusion—In order to rule out the residue left over inside the blood vessel after euthanizing, the testing animals were perfused by 10 ml 0.9% normal saline solution through left ventricle to flush out the blood.
# Confocal Imaging—8 UM fresh frozen sections were made by cryostasis machine and pasted on microslide. Coverslip was mounted on the brain section by DAPI mounting medium before Confocal examination. […]
# [3] = test system: recurrent malignant gliomas; conditions: intranasal delivery, cited from earlier work
# [4] = test system: Madin-Darby Canine Kidney (MDCK) cells; assay: In vitro BBB tight junction model (Transwell, TEER, fluorescent antibody); format: cell-based
# Protocol: The labelled components are Transwell chemotaxis chamber; upper chamber; porous membrane and lower chamber. Transwell culture chambers (pore size: 0.8 μm). Madin-Darby Canine Kidney (MDCK) cells are epithelial cells. TEER: transepithelial/transendothelial electrical resistance. Fluorescence Ab: Alexa Fluo®488; donkey anti-rat IgG (H+L). Fluorescence was measured in the lower chamber in about 120 minutes.
# [5] = test system: BBB in an in vitro BBB model; assay: In vitro BBB model, remdesivir transport across Transwell; format: cell-based; conditions: POH 1.5 mM; POH-Remdesivir vs H2O-Remdesivir in upper chamber; 4 hours
# Protocol: For the in vitro, cells were plated in the upper chamber of a Transwell. The POH-Remdesivir or H2O-Remdesivir mixture was placed in the upper chamber. POH was at a concentration of 1.5 mM. The media from both upper and lower chambers were collected after 4 hours and quantitated for remdesivir.
# Protocol for blood-brain-barrier: Brain Perfusion-Before euthanizing, the testing animals was perfused by 0.9% normal saline solution through left ventricle. The brain was removed and buried in OCT, and stored in −80° C. for further analysis.
# Ultrasound Guided Intracardiac Puncture-Briefly, the animals were anesthetized using 2% isoflurane gas and fixed on the platform for intracardiac puncture. To penetrate the syringe needle into intercoastal space promptly through skin and muscle layers into the left ventricle under the guidance of ultrasound imaging. An indication of successful insertion of the needle into the left ventricle is the reflux of fresh arterial blood (pink color in contrast to dark red venous blood) into the syringe.
# The extravasation of stained albumin from circulation could be visualized.
# NEO100 was delivered via intra-cardiac injection (left ventricle) to determine if there is increased uptake of Evans Blue, a BBB nonpermeable small molecule (dopamine), or antibodies into the brain. […] Different concentration of NE0100 (40 μl in 0.9% saline) was tested through intracardiac puncture, followed by immediate intravenous application of 2% Evans Blue (40 μl in volume). The brain was removed after perfusion.
# Experimental groups include: • IC 2% EB only • IC 20% ethanol+2% EB • IC 20% ethanol+2% EB+5% NEO100 • IC 20% ethanol+5% NEO100, followed by 2% EB tail vein injection • IV 20% ethanol+2% EB+5% NEO100 • IV 20% ethanol+2% EB
# The immune competent C57 BL/6 mice was injected with 5% NEO100 (v/v) through intracardiac puncture (IC), followed by intravenous injection of 2% Evans Blue at different time points, such as 0, 5 min, 15 min, 30 min, 1-hour, 2-hour, 3-hour, and 4 hours, post the IC injection.
# The experimental procedure included: • 1. Intracardiac Injection (IC): 5% NEO100. • 2. Followed by intravenous injection (IV) of 2% EB at different times. • 3. The testing animals were euthanized one hour after the IV injection.
structure (smiles),measurement,setting,value
"C=C(C)[C@@H]1CC=C(CO)CC1 [NEO100, perillyl alcohol]",animal survival,GL261 mouse glioma [1],dead
same,severe adverse effect or animal death,"GL261 mouse glioma [2]; 3% NEO100 intracardiac injection, 40 μl",does not cause any severe adverse effect or animal death
same,penetration of human CAR T cells into the tumor formed inside the brain,"GL261 mouse glioma [2]; IC 3% NEO100 then IV 2 million anti-CD19 or Lym-1 CAR T cells, compared to IV only, 6 h",greatly increase the penetration
same,CD3 positive cells in the normal parts of brain,GL261 mouse glioma [2]; IC NEO100 vs IV injection only samples,More CD3 positive cells
same,disturbance of the BBB (Evans Blue uptake into brain),"blood-brain-barrier; 1:1000 dilution (6.5 mM 40 μl) IC, then IV 2% Evans Blue",still effective to disturb the BBB
same,dopamine delivery to brain,blood-brain-barrier; intracardiac NEO100,mediated dopamine delivery through the breached blood-brain-barrier
same,opening of the BBB for antibodies,blood-brain-barrier; intracardiac injection (equivalent to intra-arterial injection for mice),could open the BBB for antibodies
same,tight junction in the brain,blood-brain-barrier; intracardiac injection of 5% NEO100 compared to normal brain,breached dramatically
same,safety of intraarterial administration,"blood-brain-barrier; mouse, in vivo",safe
same,treated patients achieving 6 month progression-free period,[3]; 140 treated patients,50%
same,"disease remission, several patients",[3],≤ 3 years
same,disease response,[3],regression or stabilization of the disease
same,side effects from the treatment,[3],almost non-existent
same,penetration of fluorescence labelled antibody across in vitro BBB model,"[4]; Alexa Fluor 488 donkey anti-rat IgG, lower chamber at about 120 minutes",transiently allow labeled antibodies to transiently cross it; also recorded: enhanced penetration
same,TEER,[4]; NEO100 2 mM,decreased
same,delivery of remdesivir across the BBB,[5],very efficient
